The source made the active and inactive calls. The rule behind the calls is not given here.
Tested on: CCRIS mutagenicity, Ames/micronucleus/aberration tests
Assay: CCRIS mutagenicity studies
[1] = Test System: AMES SALMONELLA TYPHIMURIUM, Strain/Indicator: TA98, Metabolic Activation: NONE, Method: PREINCUBATION
[2] = Test System: AMES SALMONELLA TYPHIMURIUM, Strain/Indicator: TA98, Metabolic Activation: NONE, Method: STANDARD PLATE
[3] = Test System: AMES SALMONELLA TYPHIMURIUM, Strain/Indicator: TA98, Metabolic Activation: RAT, LIVER, S-9, AROCLOR 1254, Method: STANDARD PLATE
[4] = Test System: AMES SALMONELLA TYPHIMURIUM, Strain/Indicator: TA100, Metabolic Activation: HAMSTER, LIVER, S-9, AROCLOR 1254 (10%), Method: PREINCUBATION
[5] = Test System: AMES SALMONELLA TYPHIMURIUM, Strain/Indicator: TA100, Metabolic Activation: NONE, Method: PREINCUBATION
[6] = Test System: AMES SALMONELLA TYPHIMURIUM, Strain/Indicator: TA100, Metabolic Activation: NONE, Method: STANDARD PLATE
[7] = Test System: AMES SALMONELLA TYPHIMURIUM, Strain/Indicator: TA100, Metabolic Activation: RAT, LIVER, S-9, AROCLOR 1254 (10%), Method: PREINCUBATION
[8] = Test System: AMES SALMONELLA TYPHIMURIUM, Strain/Indicator: TA100, Metabolic Activation: RAT, LIVER, S-9, AROCLOR 1254, Method: STANDARD PLATE
[9] = Test System: AMES SALMONELLA TYPHIMURIUM, Strain/Indicator: TA1535, Metabolic Activation: NONE, Method: STANDARD PLATE
[10] = Test System: AMES SALMONELLA TYPHIMURIUM, Strain/Indicator: TA1537, Metabolic Activation: HAMSTER, LIVER, S-9, AROCLOR 1254 (10%), Method: PREINCUBATION
[11] = Test System: AMES SALMONELLA TYPHIMURIUM, Strain/Indicator: TA1537, Metabolic Activation: NONE, Method: PREINCUBATION
[12] = Test System: AMES SALMONELLA TYPHIMURIUM, Strain/Indicator: TA1537, Metabolic Activation: RAT, LIVER, S-9, AROCLOR 1254 (10%), Method: PREINCUBATION

SMILES | mutagenic call [1] | mutagenic call [2] | mutagenic call [3] | mutagenic call [4] | mutagenic call [5] | mutagenic call [6] | mutagenic call [7] | mutagenic call [8] | mutagenic call [9] | mutagenic call [10] | mutagenic call [11] | mutagenic call [12] | also measured
NCCNCCNCCNCCN | active; positive | inactive; negative | inactive; negative | active; positive | active; positive | inactive; negative | active; positive | inactive; negative | inactive; negative | inactive; negative | inactive; negative | inactive; negative | mutagenic call (Test System: AMES SALMONELLA TYPHIMURIUM, Strain/Indicator: TA98, Metabolic Activation: RAT, LIVER, S-9, PCB, Method: PREINCUBATION): inactive; negative; mutagenic call (Test System: AMES SALMONELLA TYPHIMURIUM, Strain/Indicator: TA100, Metabolic Activation: RAT, LIVER, S-9, PCB, Method: PREINCUBATION): inactive; negative; mutagenic call (Test System: AMES SALMONELLA TYPHIMURIUM, Strain/Indicator: TA1535, Metabolic Activation: NONE, Method: PREINCUBATION): inactive; negative; mutagenic call (Test System: AMES SALMONELLA TYPHIMURIUM, Strain/Indicator: TA1535, Metabolic Activation: RAT, LIVER, S-9, AROCLOR 1254, Method: STANDARD PLATE): inactive; negative; mutagenic call (Test System: AMES SALMONELLA TYPHIMURIUM, Strain/Indicator: TA1537, Metabolic Activation: NONE, Method: STANDARD PLATE): inactive; negative; mutagenic call (Test System: AMES SALMONELLA TYPHIMURIUM, Strain/Indicator: TA1537, Metabolic Activation: RAT, LIVER, S-9, AROCLOR 1254, Method: STANDARD PLATE): inactive; negative; mutagenic call (Test System: AMES SALMONELLA TYPHIMURIUM, Strain/Indicator: TA1538, Metabolic Activation: NONE, Method: STANDARD PLATE): inactive; negative; mutagenic call (Test System: AMES SALMONELLA TYPHIMURIUM, Strain/Indicator: TA1538, Metabolic Activation: RAT, LIVER, S-9, AROCLOR 1254, Method: STANDARD PLATE): inactive; negative; mutagenic call (Test System: CHINESE HAMSTER OVARY, Strain/Indicator: CHO (HGPRT)/6-THIOGUANINE, Metabolic Activation: NONE): inactive; negative; mutagenic call (Test System: CHINESE HAMSTER OVARY, Strain/Indicator: CHO (HGPRT)/6-THIOGUANINE, Metabolic Activation: RAT, LIVER, S-9, AROCLOR 1254): inactive; negative; mutagenic call (Test System: UDS RAT HEPATOCYTES, Strain/Indicator: THY INCORP, Metabolic Activation: NONE, Method: SCINTILLATION SPECTROMETRY): active; positive
NC(=O)/C=C/c1ccc([N+](=O)[O-])o1 | active; positive | – | – | – | – | – | – | – | – | – | – | – | mutagenic call (Test System: UDS HUMAN FIBROBLASTS, Strain/Indicator: THY INCORP (NON-S-PHASE), Metabolic Activation: NONE, Method: AUTORADIOGRAPHY): active; positive
O=C1NCCN1c1nccs1 | – | active; positive | – | – | – | – | – | – | – | – | – | – | –
S=C1NCCN1 | inactive; negative | inactive; negative | inactive; negative | inactive; negative | inactive; negative | inactive; negative | inactive; negative | inactive; negative | active; positive | inactive; negative | inactive; negative | inactive; negative | mutagenic call (Test System: AMES SALMONELLA TYPHIMURIUM, Strain/Indicator: TA98, Metabolic Activation: HAMSTER, LIVER, S-9, AROCLOR 1254 (10%), Method: PREINCUBATION): inactive; negative; mutagenic call (Test System: AMES SALMONELLA TYPHIMURIUM, Strain/Indicator: TA98, Metabolic Activation: RAT, LIVER, S-9, AROCLOR 1254 (10%), Method: PREINCUBATION): inactive; negative; mutagenic call (Test System: AMES SALMONELLA TYPHIMURIUM, Strain/Indicator: TA102, Metabolic Activation: NONE, Method: STANDARD PLATE): inactive; negative; mutagenic call (Test System: AMES SALMONELLA TYPHIMURIUM, Strain/Indicator: TA102, Metabolic Activation: RAT, LIVER, S-9, AROCLOR 1254, Method: STANDARD PLATE): inactive; negative; mutagenic call (Test System: AMES SALMONELLA TYPHIMURIUM, Strain/Indicator: TA104, Metabolic Activation: NONE, Method: STANDARD PLATE): inactive; negative; mutagenic call (Test System: AMES SALMONELLA TYPHIMURIUM, Strain/Indicator: TA104, Metabolic Activation: RAT, LIVER, S-9, AROCLOR 1254, Method: STANDARD PLATE): inactive; negative; mutagenic call (Test System: AMES SALMONELLA TYPHIMURIUM, Strain/Indicator: TA1535, Metabolic Activation: S-9 MIX, Method: STANDARD PLATE): active; positive; mutagenic call (Test System: MOUSE LYMPHOMA, Strain/Indicator: L5178Y (TK+/TK-), Metabolic Activation: NONE, Method: SUSPENSION/PLATE): inactive; negative; mutagenic call (Test System: MOUSE LYMPHOMA, Strain/Indicator: L5178Y (TK+/TK-), Metabolic Activation: RAT, LIVER, S-9, AROCLOR 1254, Method: SUSPENSION/PLATE): active; positive
O=[N+]([O-])c1ccc2ccc3cc4c(c5ccc1c2c35)CCCC4O (stereo not drawn) | – | active; positive | – | – | – | – | – | – | – | – | – | – | –
